Assay results from patent US20240246945A1, “NOVEL COMPOUND FOR CROP PROTECTANT” (LG CHEM, LTD., priority 2010, published 2024).

What follows are compounds tested on Myzus persicae (Sulzer) (assay: Insecticidal Activity Test 1 against Myzus persicae (Sulzer), foliar spray on potted peppers, approximately 5 ppm). Conditions: in Capsicum, 120 h, approximately 5 ppm drug solution in water, counted on day 5 after spraying, read-out: mortality rate rating.
Type: in vivo
Excerpt: Insecticidal Activity Test 1 Against Myzus persicae (Sulzer)
(§1) Peppers were planted in plastic pots with a diameter of 8 cm and a height of 8 cm, Myzus persicae (Sulzer) was reproduced therein, and then the number of Myzus persicae (Sulzer) in each pot was investigated. Some of the compounds prepared in the examples were selected, the compound was dispersed in water to be diluted to approximately 5 ppm, thereby preparing a drug solution.
The drug solution was sprayed onto the foliage of the peppers planted in the pots using a hand sprayer and air-dried, and the pots were stored in a green house.
(§2) On day 5 after the drug spraying, the number of Myzus persicae (Sulzer) parasitic on each pepper was counted, a mortality rate was calculated from the following formula, and the rating of each compound was investigated.
(§3) [formula] • A rating: 90% to 100% mortality • B rating: 80% or more and less than 90% mortality • C rating: less than 80% mortality

Q: `CCN(C(=O)c1cnc(-c2noc(C)n2)n1C)c1cccnc1` [Ia-1-1-1, N-ethyl-1-methyl-2-(5-methyl-1,2,4-oxadiazol-3-yl)-N-(pyridin-3-yl)-1H-imidazole-5-carboxamide] was tested. Which mortality at 5 µg/mL did it give?
A: 90 to 100%

Q: For `CCc1nc(-c2ncc(C(=O)N(CC)c3cccnc3)n2C)no1` [Ia-1-1-8, N-ethyl-2-(5-ethyl-1,2,4-oxadiazol-3-yl)-1-methyl-N-(pyridin-3-yl)-1H-imidazole-5-carboxamide], which mortality at 5 µg/mL is on record?
A: 90 to 100%

Q: Which mortality at 5 µg/mL does the source give for `CCN(C(=O)c1cnc(-c2noc(C3CC3)n2)n1C)c1cccnc1` [Ia-1-1-12, 2-(5-cyclopropyl-1,2,4-oxadiazol-3-yl)-N-ethyl-1-methyl-N-(pyridin-3-yl)-1H-imidazole-5-carboxamide] here?
A: 90 to 100%

Q: Which mortality at 5 µg/mL does the source give for `CCN(C(=O)c1cnc(-c2noc(C3CCOCC3)n2)n1C)c1cccnc1` [Ia-1-1-25, N-ethyl-1-methyl-N-(pyridin-3-yl)-2-(5-(tetrahydro-2H-pyran-4-yl)-1,2,4-oxadiazol-3-yl)-1H-imidazole-5-carboxamide] here?
A: 90 to 100%

Q: With `CCN(C(=O)c1cnc(-c2noc(N3CCCCC3)n2)n1C)c1cccnc1` [Ia-1-1-26, N-ethyl-1-methyl-2-(5-(piperidin-1-yl)-1,2,4-oxadiazol-3-yl)-N-(pyridin-3-yl)-1H-imidazole-5-carboxamide] as the compound, how does the mortality at 5 µg/mL read?
A: 90 to 100%

Q: For `CCN(C(=O)c1cnc(-c2noc(N3CCCC3)n2)n1C)c1cccnc1` [Ia-1-1-27, N-ethyl-1-methyl-N-(pyridin-3-yl)-2-(5-(pyrrolidin-1-yl)-1,2,4-oxadiazol-3-yl)-1H-imidazole-5-carboxamide], which mortality at 5 µg/mL is on record?
A: 90 to 100%

Q: For `CCN(C(=O)c1cnc(-c2noc(N(C)C)n2)n1C)c1cccnc1` [Ia-1-1-36, 2-(5-(dimethylamino)-1,2,4-oxadiazol-3-yl)-N-ethyl-1-methyl-N-(pyridin-3-yl)-1H-imidazole-5-carboxamide], which mortality at 5 µg/mL is on record?
A: 90 to 100%

The compounds below were run on Myzus persicae (Sulzer) (assay: Insecticidal Activity Test 2 against Myzus persicae (Sulzer), foliar spray on potted peppers, approximately 25 ppm). Conditions: in Capsicum, 120 h, approximately 25 ppm drug solution in water, counted on day 5 after spraying, read-out: mortality rate rating.
Type: in vivo
Excerpt: Insecticidal Activity Test 2 Against Myzus persicae (Sulzer)
as §1, with “25” for “5”
The drug solution was sprayed onto the foliage of the peppers planted in the pots and air-dried, and the pots were stored in a green house.
as §2, §3

Q: How did the mortality at 25 µg/mL turn out when `CCN(C(=O)c1cnc(-c2noc(C(F)F)n2)n1C)c1cccnc1` [Ia-1-1-2, 2-(5-(difluoromethyl)-1,2,4-oxadiazol-3-yl)-N-ethyl-1-methyl-N-(pyridin-3-yl)-1H-imidazole-5-carboxamide] was run?
A: 90 to 100%

Q: `CCN(C(=O)c1cnc(-c2noc(C(C)(C)C)n2)n1C)c1cccnc1` [Ia-1-1-5, 2-(5-(tert-butyl)-1,2,4-oxadiazol-3-yl)-N-ethyl-1-methyl-N-(pyridin-3-yl)-1H-imidazole-5-carboxamide] was tested. Which mortality at 25 µg/mL did it give?
A: 90 to 100%

Q: With `CCN(C(=O)c1cnc(-c2noc(C(C)C)n2)n1C)c1cccnc1` [Ia-1-1-6, N-ethyl-2-(5-isopropyl-1,2,4-oxadiazol-3-yl)-1-methyl-N-(pyridin-3-yl)-1H-imidazole-5-carboxamide] as the compound, how does the mortality at 25 µg/mL read?
A: 90 to 100%

Q: Which mortality at 25 µg/mL does the source give for `CCCc1nc(-c2ncc(C(=O)N(CC)c3cccnc3)n2C)no1` [Ia-1-1-7, N-ethyl-1-methyl-2-(5-propyl-1,2,4-oxadiazol-3-yl)-N-(pyridin-3-yl)-1H-imidazole-5-carboxamide] here?
A: 90 to 100%

Q: `CCN(C(=O)c1cnc(-c2noc(CC3CC3)n2)n1C)c1cccnc1` [Ia-1-1-16, 2-(5-(cyclopropylmethyl)-1,2,4-oxadiazol-3-yl)-N-ethyl-1-methyl-N-(pyridin-3-yl)-1H-imidazole-5-carboxamide] was tested. Which mortality at 25 µg/mL did it give?
A: 90 to 100%

Q: Which mortality at 25 µg/mL does the source give for `CCN(C(=O)c1cnc(-c2noc(-c3ccccc3)n2)n1C)c1cccnc1` [Ia-1-1-21, N-ethyl-1-methyl-2-(5-phenyl-1,2,4-oxadiazol-3-yl)-N-(pyridin-3-yl)-1H-imidazole-5-carboxamide] here?
A: 90 to 100%

Q: Which mortality at 25 µg/mL does the source give for `CCN(C(=O)c1cnc(-c2noc(-c3cocn3)n2)n1C)c1cccnc1` [Ia-1-1-22, N-ethyl-1-methyl-2-(5-(oxazol-4-yl)-1,2,4-oxadiazol-3-yl)-N-(pyridin-3-yl)-1H-imidazole-5-carboxamide] here?
A: 90 to 100%

Q: Which mortality at 25 µg/mL does the source give for `CCN(C(=O)c1cnc(-c2noc(-c3cnco3)n2)n1C)c1cccnc1` [Ia-1-1-23, N-ethyl-1-methyl-2-(5-(oxazol-5-yl)-1,2,4-oxadiazol-3-yl)-N-(pyridin-3-yl)-1H-imidazole-5-carboxamide] here?
A: 90 to 100%

Q: `CCN(C(=O)c1cnc(-c2noc(-c3ccccc3F)n2)n1C)c1cccnc1` [Ia-1-1-24, N-ethyl-1-methyl-2-(5-(2-fluorophenyl)-1,2,4-oxadiazol-3-yl)-N-(pyridin-3-yl)-1H-imidazole-5-carboxamide] was tested. Which mortality at 25 µg/mL did it give?
A: 90 to 100%

Q: With `CCN(C(=O)c1cnc(-c2noc(-c3cccnc3)n2)n1C)c1cccnc1` [Ia-1-1-30, N-ethyl-1-methyl-N-(pyridin-3-yl)-2-(5-(pyridin-3-yl)-1,2,4-oxadiazol-3-yl)-1H-imidazole-5-carboxamide] as the compound, how does the mortality at 25 µg/mL read?
A: 90 to 100%

Q: `CCN(C(=O)c1cnc(-c2noc(-c3ccncc3)n2)n1C)c1cccnc1` [Ia-1-1-31, N-ethyl-1-methyl-N-(pyridin-3-yl)-2-(5-(pyridin-4-yl)-1,2,4-oxadiazol-3-yl)-1H-imidazole-5-carboxamide] was tested. Which mortality at 25 µg/mL did it give?
A: 90 to 100%

Q: With `CCN(C(=O)c1cnc(-c2noc(NC(C)C)n2)n1C)c1cccnc1` [Ia-1-1-33, N-ethyl-2-(5-(isopropylamino)-1,2,4-oxadiazol-3-yl)-1-methyl-N-(pyridin-3-yl)-1H-imidazole-5-carboxamide] as the compound, how does the mortality at 25 µg/mL read?
A: 90 to 100%

Q: Which mortality at 25 µg/mL does the source give for `CCNc1nc(-c2ncc(C(=O)N(CC)c3cccnc3)n2C)no1` [Ia-1-1-35, N-ethyl-2-(5-(ethylamino)-1,2,4-oxadiazol-3-yl)-1-methyl-N-(pyridin-3-yl)-1H-imidazole-5-carboxamide] here?
A: 90 to 100%

Q: Which mortality at 25 µg/mL does the source give for `CCN(C(=O)c1cnc(-c2noc(N3CCOCC3)n2)n1C)c1cccnc1` [Ia-1-1-37, N-ethyl-1-methyl-2-(5-morpholino-1,2,4-oxadiazol-3-yl)-N-(pyridin-3-yl)-1H-imidazole-5-carboxamide] here?
A: 90 to 100%

Q: Which mortality at 25 µg/mL does the source give for `CCN(C(=O)c1cnc(-c2noc(N(C(C)=O)C(C)C)n2)n1C)c1cccnc1` [Ia-1-1-38, N-ethyl-2-(5-(N-isopropylacetamido)-1,2,4-oxadiazol-3-yl)-1-methyl-N-(pyridin-3-yl)-1H-imidazole-5-carboxamide] here?
A: 90 to 100%

Q: For `CCN(C(=O)c1cnc(C2=NOC(C)(C)N2C(=O)C2CC2)n1C)c1cccnc1` [Ia-1-4-3, 2-(4-(cyclopropanecarbonyl)-5,5-dimethyl-4,5-dihydro-1,2,4-oxadiazol-3-yl)-N-ethyl-1-methyl-N-(pyridin-3-yl)-1H-imidazole-5-carboxamide], which mortality at 25 µg/mL is on record?
A: 90 to 100%

Q: Which mortality at 25 µg/mL does the source give for `CCN(C(=O)c1cnc(C2=NOC(CC)(CC)N2)n1C)c1cccnc1` [Ia-1-4-4, 2-(5,5-diethyl-4,5-dihydro-1,2,4-oxadiazol-3-yl)-N-ethyl-1-methyl-N-(pyridin-3-yl)-1H-imidazole-5-carboxamide] here?
A: 90 to 100%

Q: How did the mortality at 25 µg/mL turn out when `CCN(C(=O)c1cnc(C2=NOC3(CCOCC3)N2)n1C)c1cccnc1` [Ia-1-4-10, N-ethyl-1-methyl-N-(pyridin-3-yl)-2-(1,8-dioxa-2,4-diazaspiro[4.5]dec-2-en-3-yl)-1H-imidazole-5-carboxamide] was run?
A: 90 to 100%

Q: `CCN(C(=O)c1cnc(C2=NOC3(CCOCC3)N2C(=O)C2CC2)n1C)c1cccnc1` [Ia-1-4-12, 2-(4-(cyclopropanecarbonyl)-1,8-dioxa-2,4-diazaspiro[4.5]dec-2-en-3-yl)-N-ethyl-1-methyl-N-(pyridin-3-yl)-1H-imidazole-5-carboxamide] was tested. Which mortality at 25 µg/mL did it give?
A: 90 to 100%

Q: For `CCN(C(=O)c1cnc(C2=NOC3(CCC(C(F)(F)F)CC3)N2C)n1C)c1cccnc1` (centres unmarked) [Ia-1-4-25, N-ethyl-1-methyl-2-(4-methyl-8-(trifluoromethyl)-1-oxa-2,4-diazaspiro[4.5]dec-2-en-3-yl)-N-(pyridin-3-yl)-1H-imidazole-5-carboxamide], which mortality at 25 µg/mL is on record?
A: 90 to 100%

Q: For `CCN(C(=O)c1cnc(C2=NOC(c3ccccc3F)N2)n1C)c1cccnc1` (centres unmarked) [Ia-1-4-33, N-ethyl-2-(5-(2-fluorophenyl)-4,5-dihydro-1,2,4-oxadiazol-3-yl)-1-methyl-N-(pyridin-3-yl)-1H-imidazole-5-carboxamide], which mortality at 25 µg/mL is on record?
A: 90 to 100%

Q: With `CCN(C(=O)c1cnc(C2=NOC(c3cccnc3F)N2)n1C)c1cccnc1` (centres unmarked) [Ia-1-4-34, N-ethyl-2-(5-(2-fluoropyridin-3-yl)-4,5-dihydro-1,2,4-oxadiazol-3-yl)-1-methyl-N-(pyridin-3-yl)-1H-imidazole-5-carboxamide] as the compound, how does the mortality at 25 µg/mL read?
A: 90 to 100%

Q: How did the mortality at 25 µg/mL turn out when `CCN(C(=O)c1cnc(C2=NC(C)(C)ON2C)n1C)c1cccnc1` [Ia-1-5-1, N-ethyl-1-methyl-N-(pyridin-3-yl)-2-(2,5,5-trimethyl-2,5-dihydro-1,2,4-oxadiazol-3-yl)-1H-imidazole-5-carboxamide] was run?
A: 90 to 100%

Q: `CCN(C(=O)c1cnc(C2=NC3(CCN(C(=O)OC(C)(C)C)CC3)ON2C)n1C)c1cccnc1` [Ia-1-5-3, tert-butyl 3-(5-(ethyl(pyridin-3-yl)carbamoyl)-1-methyl-1H-imidazole-2-yl)-2-methyl-1-oxa-2,4,8-triazaspiro[4.5]dec-3-en-8-carboxylate] was tested. Which mortality at 25 µg/mL did it give?
A: 90 to 100%

Q: Which mortality at 25 µg/mL does the source give for `CCN(C(=O)c1cnc(C2=NC(c3cccnc3F)ON2C)n1C)c1cccnc1` (centres unmarked) [Ia-1-5-9, N-ethyl-2-(5-(2-fluoropyridin-3-yl)-2-methyl-2,5-dihydro-1,2,4-oxadiazol-3-yl)-1-methyl-N-(pyridin-3-yl)-1H-imidazole-5-carboxamide] here?
A: 90 to 100%
